Test results reported in patent US12514806B2, “Cosmetic composition comprising ceramides and sphingolipid” (Croda Korea Ltd, priority 2022, dated 2026).

How the values were obtained:
Type in all cases: cell-based
filaggrin = assay: Filaggrin expression in 3D skin model by immunofluorescence; details: Experimental Example 4; creams including 0.01% and 0.1% of EOP on 3D skin model; compared to control; concentration-dependent; FIGS. 11-12
Description: (§1) To verify the difference in skin moisturizing according to a ceramide content ratio, each of the creams of Examples 1 to 16 was applied to 3D skin model (EPI-201) manufactured by MatTek, and then the expression of aquaporin 3 and filaggrin was examined.
(§2) Aquaporin 3 expression and filaggrin expression were analyzed by immunofluorescence. Specifically, after the 3D skin model was treated with each of the creams of Examples 1 to 16, the 3D skin model was incubated for 48 hours, and then each cream was washed out with PBS. The 3D skin model was put into a cassette and fixed with 10% formalin, and then made into a paraffin block through dehydration, transparency, penetration, and embedding processes. For deparaffinization, slides were prepared by sectioning to 3 μm, and then paraffin was melted in a dry oven at 60° C. for 30 minutes. […] After DAPI mounting, the slides were observed using a fluorescence microscope, and the results thereof are illustrated in FIGS. 1 to 4. […]
(§3) The moisturizing and barrier factors were analyzed by immunofluorescence in the same manner as in Experimental Example 1, and the results thereof are illustrated in FIGS. 11 and 12. […]
(§4) The moisturizing factors were analyzed by immunofluorescence in the same manner as in Experimental Example 1, and the results thereof are illustrated in FIGS. 15 to 18.

ceramide = assay: Amount of ceramide in 3D skin model by immunofluorescence; details: Experimental Example 4; creams including 0.01% and 0.1% of EOP on 3D skin model; compared to control; FIGS. 11-12
Description: as §2, with “minutes. Then, the slides were treated with xylene for 15 minutes, 100% ethanol for 5 minutes, 95% ethanol for 5 minutes, and 70% ethanol for 5 minutes, and washed with tap water. Antigen retrieval was carried out by boiling for 10 minutes in citrate buffer in a cooker, followed by cooling in running water. After treatment with 0.5% Triton X-100 for 15 minutes, the slides were washed three times with PBS buffer for 5 minutes.” for “minutes.”
The moisturizing and barrier factors were analyzed by immunofluorescence in the same manner as in Experimental Example 1, and the results thereof are illustrated in FIGS. 11 and 12.

aquaporin 3 = assay: Aquaporin 3 expression in 3D skin model by immunofluorescence; details: Experimental Example 4; creams including 0.01% and 0.1% of EOP on 3D skin model; compared to control; concentration-dependent; FIGS. 11-12
Description: as §1, §2, §3, §4

ceramide EOP
increased: amount of filaggrin (filaggrin) | amount of ceramide (ceramide) | amount of aquaporin 3 (aquaporin 3)
